pIC50: −log10 of the molar value.
These compounds were tested against T1, human PDE10A full length (Homo sapiens, UniProt Q9Y233) (assay: PDE10A Scintillation Proximity Assay (SPA), human PDE10A full length assay). Conditions: 50 nM cGMP + 50 nM [3H]-cGMP, 20 minutes at room temperature, read-out: PDE10A inhibition IC50.
T1 construct: purchased Enzo Life Science, Lausen, Switzerland SE-534
Assay type: biochemical
Procedure: The following test was carried out in order to determine the activity of the compounds of the present invention. PDE10 activity of the compounds of the present invention was determined using a Scintillation Proximity Assay (SPA)-based method similar to the one previously described (Fawcett, L. et al., Proc Natl Acad Sci USA (2000) 97(7):3702-3707).
The human PDE10A full length assay was performed in 96-well micro titer plates. The reaction mixture of 50 μl contained 20 mM HEPES pH=7.5/10 mM MgCl2/0.05 mg/ml BSA (Sigma cat. #A-7906), 50 nM cGMP (Sigma, cat. #G6129) and 50 nM [^3H]-cGMP (GE Healthcare, cat. #TRK392 S.A. 13.2Ci/mmol), 3.75 ng/well PDE10A enzyme (Enzo Life Science, Lausen, Switzerland cat #SE-534) with or without a specific test compound. A range of concentrations of the potential inhibitor was used to generate data for calculating the concentration of inhibitor resulting in 50% of the effect (e.g. IC50, the concentration of the competitor inhibiting PDE10A activity by 50%). Non-specific activity was tested without the enzyme. The reaction was initiated by the addition of the substrate solution (cGMP and [^3H]-cGMP) and allowed to progress for 20 minutes at room temperature. The reaction was terminated by adding 25 μl of YSi-SPA scintillation beads (GE Healthcare, cat. #RPNQ0150) in 18 mM zinc sulphate solution (stop reagent). After 1 h under shaking, the plate was centrifuged one minute at 170 g to allow beads to settle. Afterwards, radioactive counts were measured on a Perkin Elmer TopCount Scintillation plate reader.

T1 sequence (Q9Y233 1-779 isoform Q9Y233-1): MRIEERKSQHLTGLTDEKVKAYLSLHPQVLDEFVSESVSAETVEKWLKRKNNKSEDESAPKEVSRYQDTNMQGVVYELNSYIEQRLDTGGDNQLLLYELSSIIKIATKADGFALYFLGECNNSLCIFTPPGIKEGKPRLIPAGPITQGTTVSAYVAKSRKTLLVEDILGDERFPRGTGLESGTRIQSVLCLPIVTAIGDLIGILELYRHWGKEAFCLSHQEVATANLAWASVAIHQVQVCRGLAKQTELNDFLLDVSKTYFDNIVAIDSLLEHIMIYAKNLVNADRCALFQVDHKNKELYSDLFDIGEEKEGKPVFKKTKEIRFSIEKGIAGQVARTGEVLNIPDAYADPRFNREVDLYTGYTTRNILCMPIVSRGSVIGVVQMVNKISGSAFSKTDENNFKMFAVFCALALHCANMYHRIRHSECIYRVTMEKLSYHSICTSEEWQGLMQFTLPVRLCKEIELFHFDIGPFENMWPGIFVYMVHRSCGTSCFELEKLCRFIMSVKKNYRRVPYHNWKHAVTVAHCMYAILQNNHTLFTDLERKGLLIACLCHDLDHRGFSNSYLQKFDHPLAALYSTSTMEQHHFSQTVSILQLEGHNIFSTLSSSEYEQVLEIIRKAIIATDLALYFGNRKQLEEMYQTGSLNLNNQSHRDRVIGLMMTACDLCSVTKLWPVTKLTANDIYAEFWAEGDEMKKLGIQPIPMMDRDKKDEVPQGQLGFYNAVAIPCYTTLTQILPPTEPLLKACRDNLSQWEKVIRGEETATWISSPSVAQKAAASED

`COCCN(CCOC)C(=O)c1cnn(C)c1C(=O)Nc1ccn2nc(-c3ccccc3)nc2c1` [Example 6, N4,N4-bis(2-methoxyethyl)-1-methyl-N5-(2-phenyl-[1,2,4]triazolo[1,5-a]pyridin-7-yl)-1H-pyrazole-4,5-dicarboxamide] and `CN(CCF)C(=O)c1cnn(C)c1C(=O)Nc1ccn2nc(-c3ccccc3)nc2c1` [Example 26, 2-Methyl-2H-pyrazole-3,4-dicarboxylic acid 4-[(2-fluoro-ethyl)-methyl-amide]3-[(2-phenyl-[1,2,4]triazolo[1,5-a]pyridin-7-yl)-amide]] are the same in pIC50: 9.37 for the first, 9.37 for the second.

`Cn1ncc(C(=O)N2CCOCC2)c1C(=O)Nc1ccn2nc(-c3ccccc3)nc2c1` [Example 12, 1-Methyl-4-(morpholine-4-carbonyl)-N-(2-phenyl-[1,2,4]triazolo[1,5-a]pyridin-7-yl)-1H-pyrazole-5-carboxamide] and `Cn1ncc(C(=O)N2CCOCC2)c1C(=O)Nc1ccn2nc(-c3cccc(O)c3)nc2c1` [Example 80, 2-Methyl-4-(morpholine-4-carbonyl)-2H-pyrazole-3-carboxylic acid [2-(3-hydroxy-phenyl)-[1,2,4]triazolo[1,5-a]pyridin-7-yl]-amide] are within 0.2 log units of each other in pIC50: 9.57 for the first, 9.39 for the second.

Compared with `CN(CCF)C(=O)c1cnn(C)c1C(=O)Nc1ccn2nc(N3CCOCC3)nc2c1` [Example 21, N4-(2-Fluoroethyl)-N4,1-dimethyl-N5-(2-morpholino-[1,2,4]triazolo[1,5-a]pyridin-7-yl)-1H-pyrazole-4,5-dicarboxamide], `CN(CC(F)(F)F)C(=O)c1cnn(C)c1C(=O)Nc1ccn2nc(N3CCOCC3)nc2c1` [Example 54, 2-Methyl-2H-pyrazole-3,4-dicarboxylic acid 4-[methyl-(2,2,2-trifluoro-ethyl)-amide]3-[(2-morpholin-4-yl-[1,2,4]triazolo[1,5-a]pyridin-7-yl)-amide]] is 0.49 log units lower in pIC50: 7.58 for the first, 7.09 for the second.

First: CC(C)OC(=O)c1cnn(C)c1C(=O)Nc1ccn2nc(-c3ccccc3)nc2c1 [Example 27, Isopropyl 1-methyl-5-(2-phenyl-[1,2,4]triazolo[1,5-a]pyridin-7-ylcarbamoyl)-1H-pyrazole-4-carboxylate]
Second: COc1cccc(-c2nc3cc(NC(=O)c4c(C(=O)N(C)C)cnn4C)ccn3n2)c1 [Example 78, 2-Methyl-2H-pyrazole-3,4-dicarboxylic acid 4-dimethylamide 3-{[2-(3-methoxy-phenyl)[1,2,4]triazolo[1,5-a]pyridin-7-yl]-amide}]
The pIC50 of the first is 1.39 log units lower: 8.10 for the first, 9.49 for the second.

Compared with `Cn1ncc(C(=O)N2CCC2)c1C(=O)Nc1ccn2nc(C(=O)NCCC(F)(F)F)nc2c1` [Example 33, 7-(4-(Azetidine-1-carbonyl)-1-methyl-1H-pyrazole-5-carboxamido)-N-(3,3,3-trifluoropropyl)-[1,2,4]triazolo[1,5-a]pyridine-2-carboxamide], `CN(C)C(=O)c1nc2cc(NC(=O)c3c(C(=O)N4CCC4)cnn3C)ccn2n1` [Example 62, 7-{[4-(Azetidine-1-carbonyl)-2-methyl-2H-pyrazole-3-carbonyl]-amino}-[1,2,4]triazolo[1,5-a]pyridine-2-carboxylic acid dimethylamide] is 0.59 log units lower in pIC50: 7.54 for the first, 6.95 for the second. The first is the more potent here.

`Cn1ncc(C(=O)N2CCCC2)c1C(=O)Nc1ccn2nc(N3CCOCC3)nc2c1` [Example 42, 1-Methyl-N-(2-morpholino-[1,2,4]triazolo[1,5-a]pyridin-7-yl)-4-(pyrrolidine-1-carbonyl)-1H-pyrazole-5-carboxamide] and `Cn1ncc(C(=O)N2CC(F)C2)c1C(=O)Nc1ccn2nc(N3CCOCC3)nc2c1` [Example 43, 4-(3-Fluoroazetidine-1-carbonyl)-1-methyl-N-(2-morpholino-[1,2,4]triazolo[1,5-a]pyridin-7-yl)-1H-pyrazole-5-carboxamide] are within 0.2 log units of each other in pIC50: 8.29 for the first, 8.42 for the second.

Compared with `CN(C(=O)c1cnn(C)c1C(=O)Nc1ccn2nc(N3CCOCC3)nc2c1)C1CC1` [Example 53, N4-cyclopropyl-N4,1-dimethyl-N5-(2-morpholino-[1,2,4]triazolo[1,5-a]pyridin-7-yl)-1H-pyrazole-4,5-dicarboxamide], `CN(C(=O)c1cnn(C)c1C(=O)Nc1ccn2nc(-c3cccnc3)nc2c1)C1CC1` [Example 55, 2-Methyl-2H-pyrazole-3,4-dicarboxylic acid 4-(cyclopropyl-methyl-amide)3-[(2-pyridin-3-yl-[1,2,4]triazolo[1,5-a]pyridin-7-yl)-amide]] is 0.40 log units higher in pIC50: 8.95 for the first, 9.35 for the second.

Going from `COc1ccccc1-c1nc2cc(NC(=O)c3c(C(=O)N4CCOCC4)cnn3C)ccn2n1` [Example 69, 2-Methyl-4-(morpholine-4-carbonyl)-2H-pyrazole-3-carboxylic acid [2-(2-methoxy-phenyl)-[1,2,4]triazolo[1,5-a]pyridin-7-yl]-amide] to `COc1cccc(-c2nc3cc(NC(=O)c4c(C(=O)N5CCOCC5)cnn4C)ccn3n2)c1` [Example 76, 2-Methyl-4-(morpholine-4-carbonyl)-2H-pyrazole-3-carboxylic acid [2-(3-methoxy-phenyl)-[1,2,4]triazolo[1,5-a]pyridin-7-yl]-amide], the pIC50 falls from 9.17 to 8.29 (0.88 log units). The first is the more potent here.

Compared with `COc1cccc(-c2nc3cc(NC(=O)c4c(C(=O)N5CCC5)cnn4C)ccn3n2)c1` [Example 75, 4-(Azetidine-1-carbonyl)-2-methyl-2H-pyrazole-3-carboxylic acid [2-(3-methoxy-phenyl)-[1,2,4]triazolo[1,5-a]pyridin-7-yl]-amide], `Cn1ncc(C(=O)N2CCOCC2)c1C(=O)Nc1ccn2nc(-c3cccc(OCF)c3)nc2c1` [Example 82, 2-Methyl-4-(morpholine-4-carbonyl)-2H-pyrazole-3-carboxylic acid [2-(3-fluoromethoxy-phenyl)-[1,2,4]triazolo[1,5-a]pyridin-7-yl]-amide] is 0.40 log units lower in pIC50: 9.51 for the first, 9.11 for the second. The first is the more potent here.

First: COCCN(C)C(=O)c1cnn(C)c1C(=O)Nc1ccn2nc(-c3cccc(OC)c3)nc2c1 [Example 77, 2-Methyl-2H-pyrazole-3,4-dicarboxylic acid 4-[(2-methoxy-ethyl)-methyl-amide]3-{[2-(3-methoxy-phenyl)-[1,2,4]triazolo[1,5-a]pyridin-7-yl]-amide}]
Second: CCN(C)C(=O)c1cnn(C)c1C(=O)Nc1ccn2nc(-c3cccc(OC)c3)nc2c1 [Example 79, 2-Methyl-2H-pyrazole-3,4-dicarboxylic acid 4-(ethyl-methyl-amide)3-{[2-(3-methoxy-phenyl)-[1,2,4]triazolo[1,5-a]pyridin-7-yl]-amide}]
The pIC50 of the first is 0.48 log units higher: 9.24 for the first, 8.76 for the second.

`Cn1ncc(C(=O)N2CCOCC2)c1C(=O)Nc1ccn2nc(-c3cccc(OCCF)c3)nc2c1` [Example 81, 2-Methyl-4-(morpholine-4-carbonyl)-2H-pyrazole-3-carboxylic acid {2-[3-(2-fluoro-ethoxy)-phenyl]-[1,2,4]triazolo[1,5-a]pyridin-7-yl}-amide] and `CN(C)C(=O)c1cnn(C)c1C(=O)Nc1ccn2nc(-c3cccc(OCCF)c3)nc2c1` [Example 85, 2-Methyl-2H-pyrazole-3,4-dicarboxylic acid 4-dimethylamide 3-({2-[3-(2-fluoro-ethoxy)-phenyl]-[1,2,4]triazolo[1,5-a]pyridin-7-yl}-amide)] are within 0.2 log units of each other in pIC50: 9.23 for the first, 9.14 for the second.

`CCN(C)C(=O)c1cnn(C)c1C(=O)Nc1ccn2nc(-c3cccc(OCCF)c3)nc2c1` [Example 83, 2-Methyl-2H-pyrazole-3,4-dicarboxylic acid 4-(ethyl-methyl-amide)3-({2-[3-(2-fluoro-ethoxy)-phenyl]-[1,2,4]triazolo[1,5-a]pyridin-7-yl}-amide)] and `CCN(C)C(=O)c1cnn(C)c1C(=O)Nc1ccn2nc(-c3cccc(OCF)c3)nc2c1` [Example 84, 2-Methyl-2H-pyrazole-3,4-dicarboxylic acid 4-(ethyl-methyl-amide)3-{[2-(3-fluoromethoxy-phenyl)-[1,2,4]triazolo[1,5-a]pyridin-7-yl]-amide}] are within 0.2 log units of each other in pIC50: 9.20 for the first, 9.27 for the second.

`CN(C)C(=O)c1cnn(C)c1C(=O)Nc1ccn2nc(-c3cccc(OCF)c3)nc2c1` [Example 86, 2-Methyl-2H-pyrazole-3,4-dicarboxylic acid 4-dimethylamide 3-{[2-(3-fluoromethoxy-phenyl)-[1,2,4]triazolo[1,5-a]pyridin-7-yl]-amide}] and `COCCN(C)C(=O)c1cnn(C)c1C(=O)Nc1ccn2nc(-c3cccc(OCCF)c3)nc2c1` [Example 88, 2-Methyl-2H-pyrazole-3,4-dicarboxylic acid 3-({2-[3-(2-fluoro-ethoxy)-phenyl]-[1,2,4]triazolo[1,5-a]pyridin-7-yl}-amide)4-[(2-methoxy-ethyl)-methyl-amide]] are within 0.2 log units of each other in pIC50: 9.22 for the first, 9.38 for the second.

`COCCN(C)C(=O)c1cnn(C)c1C(=O)Nc1ccn2nc(-c3cccc(O)c3)nc2c1` [Example 87, 2-Methyl-2H-pyrazole-3,4-dicarboxylic acid 3-{[2-(3-hydroxy-phenyl)-[1,2,4]triazolo[1,5-a]pyridin-7-yl]-amide} 4-[(2-methoxy-ethyl)-methyl-amide]] showed a pIC50 of 9.37.

Source: patent US8349824B2, “Triazolopyridine compounds” (Hoffmann-La Roche Inc., priority 2010, dated 2013)
